ChEMBL document CHEMBL1157381, “Alkaloids from the Australian rainforest tree Ochrosia moorei” (J Nat Prod, 2008)
Active and inactive are the calls of the source. No cut-off for these calls is given here.

Key:
Type in all cases: cell-based
[1] = target: T1, Glucocorticoid receptor (Homo sapiens) (UniProt P04150); assay: Inhibition of glucocorticoid receptor-glucocorticoid complex transfected in rat R1 cells assessed as down-regulation of TPA-responsive element proinflammatory gene expression at 10 uM after 24 hrs by beta-galactosidase assay
T1 sequence (whole entry): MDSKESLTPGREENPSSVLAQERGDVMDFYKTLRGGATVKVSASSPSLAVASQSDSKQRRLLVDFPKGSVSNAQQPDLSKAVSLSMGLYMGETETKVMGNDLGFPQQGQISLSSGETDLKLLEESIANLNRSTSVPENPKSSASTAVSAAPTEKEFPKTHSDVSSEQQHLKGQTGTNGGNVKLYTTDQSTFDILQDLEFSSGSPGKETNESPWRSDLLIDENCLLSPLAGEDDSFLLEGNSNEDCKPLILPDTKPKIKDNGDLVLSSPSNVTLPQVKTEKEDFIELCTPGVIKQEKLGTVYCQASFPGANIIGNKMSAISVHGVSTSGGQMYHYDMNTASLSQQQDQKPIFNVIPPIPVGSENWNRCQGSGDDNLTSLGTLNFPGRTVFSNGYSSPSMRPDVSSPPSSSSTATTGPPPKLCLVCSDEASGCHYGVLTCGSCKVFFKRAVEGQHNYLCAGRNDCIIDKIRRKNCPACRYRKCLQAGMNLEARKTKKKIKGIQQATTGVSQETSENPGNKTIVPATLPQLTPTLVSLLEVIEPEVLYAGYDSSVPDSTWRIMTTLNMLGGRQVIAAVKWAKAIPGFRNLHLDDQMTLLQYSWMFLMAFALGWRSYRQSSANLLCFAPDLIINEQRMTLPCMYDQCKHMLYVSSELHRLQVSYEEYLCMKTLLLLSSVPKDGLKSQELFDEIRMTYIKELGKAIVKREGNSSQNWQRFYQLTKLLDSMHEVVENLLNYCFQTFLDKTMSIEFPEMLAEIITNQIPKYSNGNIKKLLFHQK

[2] = target: T1, Glucocorticoid receptor (Homo sapiens); assay: Inhibition of glucocorticoid receptor-glucocorticoid complex transfected in rat R1 cells assessed as down-regulation of TPA-responsive element proinflammatory gene expression at 100 uM after 24 hrs by beta-galactosidase assay; design: scale not given: the % may be the effect or the level left
Glucocorticoid receptor = target: T2, Glucocorticoid receptor (Homo sapiens, UniProt P04150); assay: Inhibition of glucocorticoid receptor-glucocorticoid complex transfected in rat R1 cells assessed as down-regulation of TPA-responsive element proinflammatory gene expression after 24 hrs by beta-galactosidase assay
T2 sequence (P04150 whole entry): T1 sequence (whole entry)

R1 = assay: Cytotoxicity against rat R1 cells at 100 uM after 24 hrs by neutral red assay; settings: r1, 24 h

SMILES	Activity [1]	Activity [2]	IC50 (Glucocorticoid receptor)	Activity (R1)
CN1c2ccccc2[C@]23CCN4C=C(C(=O)CO)[C@H](C[C@H]42)C[C@H]13	inactive	–	–	–
C=C1c2[nH]c3ccccc3c2CN2CC[C@H]1/C(=C\C)C2	–	54%	–	–
COc1ccc2[nH]c3c(C)c4ccncc4c(C)c3c2c1	–	–	90 µM	Non-toxic
C=C[C@H]1[C@H](O[C@H]2O[C@H](CO)[C@@H](O)[C@H](O)[C@H]2O)OC=C(C(=O)OC)[C@H]1Cc1nc(C(=O)O)cc2c1[nH]c1ccccc12	–	30%	–	–
Cc1c2ccncc2c(C)c2c1[nH]c1ccccc12 [ELLIPTECINE]	–	–	90 µM	Non-toxic
CC(=O)C1=CN2CC[C@]34c5ccccc5N(C)[C@H]3C[C@H]1C[C@H]24	inactive	–	–	–
